The text below walks through data of ChEMBL document CHEMBL1152511, “Structural basis for alpha-conotoxin potency and selectivity” (Bioorg Med Chem, 2009).

In assay [1] the target is Neuronal acetylcholine receptor; alpha3/beta2 (Homo sapiens, UniProt P17787+P32297). Description: Inhibition of alpha3beta2 nAChR. Format: protein-complex assay.
Assay [2] deals with Neuronal acetylcholine receptor; alpha6/beta2 (Homo sapiens, UniProt P17787+Q15825). Description: Inhibition of alpha6beta2 nAChR. Format: protein-complex assay.
Chain of Neuronal acetylcholine receptor; alpha6/beta2 (P17787 whole entry): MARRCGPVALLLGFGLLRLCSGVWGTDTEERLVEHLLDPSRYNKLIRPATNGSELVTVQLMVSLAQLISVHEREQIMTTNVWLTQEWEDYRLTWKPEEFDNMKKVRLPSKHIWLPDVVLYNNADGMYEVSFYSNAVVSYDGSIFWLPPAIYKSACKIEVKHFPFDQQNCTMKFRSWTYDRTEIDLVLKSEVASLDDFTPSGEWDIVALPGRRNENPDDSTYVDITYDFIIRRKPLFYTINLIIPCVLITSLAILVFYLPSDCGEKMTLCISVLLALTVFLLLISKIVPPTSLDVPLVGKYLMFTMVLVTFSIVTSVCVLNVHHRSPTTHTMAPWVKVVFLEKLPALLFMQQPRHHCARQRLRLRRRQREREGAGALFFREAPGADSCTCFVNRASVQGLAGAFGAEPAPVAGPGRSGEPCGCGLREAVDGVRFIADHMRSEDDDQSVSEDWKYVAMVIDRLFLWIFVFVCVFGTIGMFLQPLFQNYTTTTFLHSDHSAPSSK
Chain of Neuronal acetylcholine receptor; alpha6/beta2 (Q15825 whole entry): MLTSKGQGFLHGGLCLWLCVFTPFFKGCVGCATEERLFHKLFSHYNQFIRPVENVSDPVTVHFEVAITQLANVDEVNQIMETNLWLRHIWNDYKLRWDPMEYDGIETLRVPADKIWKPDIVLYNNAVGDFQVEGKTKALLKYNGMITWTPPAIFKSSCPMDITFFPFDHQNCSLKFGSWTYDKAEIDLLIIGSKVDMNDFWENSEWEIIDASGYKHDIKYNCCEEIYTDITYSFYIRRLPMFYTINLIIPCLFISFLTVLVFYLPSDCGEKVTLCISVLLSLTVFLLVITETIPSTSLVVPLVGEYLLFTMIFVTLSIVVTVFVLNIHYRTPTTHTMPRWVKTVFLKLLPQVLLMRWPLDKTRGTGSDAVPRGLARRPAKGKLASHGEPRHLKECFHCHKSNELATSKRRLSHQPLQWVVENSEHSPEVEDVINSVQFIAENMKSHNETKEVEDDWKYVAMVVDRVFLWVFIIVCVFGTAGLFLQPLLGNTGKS
Assay [3] can be described thus: Selectivity ratio of IC50 for alpha6beta2 nAChR to IC50 for alpha3beta2 nAChR.
For assay [4], the species on record is Macaca mulatta. Description: Binding affinity to monkey alpha-6-alpha-4-beta-2 nAChR.
The species named for assay [5] is Macaca mulatta. The assay can be described thus: Selectivity ratio of monkey alpha-6-alpha-4-beta-2 nAChR over monkey alpha-6-(non-alpha-4)-beta-2 nAChR.
The species entered for assay [6] is Macaca mulatta. The assay can be described thus: Binding affinity to monkey alpha-6-(non-alpha-4)-beta-2 nAChR.
Assay [7] can be described thus: Selectivity for alpha3beta2 nAChR over alpha6beta2 nAChR.

pIC50: −log10 of the molar value. Residues, ends and D or L forms follow the SMILES beside them.

Chain of Neuronal acetylcholine receptor; alpha3/beta2 (P17787 whole entry): as the sequence (P17787 whole entry) above
Chain of Neuronal acetylcholine receptor; alpha3/beta2 (P32297 whole entry): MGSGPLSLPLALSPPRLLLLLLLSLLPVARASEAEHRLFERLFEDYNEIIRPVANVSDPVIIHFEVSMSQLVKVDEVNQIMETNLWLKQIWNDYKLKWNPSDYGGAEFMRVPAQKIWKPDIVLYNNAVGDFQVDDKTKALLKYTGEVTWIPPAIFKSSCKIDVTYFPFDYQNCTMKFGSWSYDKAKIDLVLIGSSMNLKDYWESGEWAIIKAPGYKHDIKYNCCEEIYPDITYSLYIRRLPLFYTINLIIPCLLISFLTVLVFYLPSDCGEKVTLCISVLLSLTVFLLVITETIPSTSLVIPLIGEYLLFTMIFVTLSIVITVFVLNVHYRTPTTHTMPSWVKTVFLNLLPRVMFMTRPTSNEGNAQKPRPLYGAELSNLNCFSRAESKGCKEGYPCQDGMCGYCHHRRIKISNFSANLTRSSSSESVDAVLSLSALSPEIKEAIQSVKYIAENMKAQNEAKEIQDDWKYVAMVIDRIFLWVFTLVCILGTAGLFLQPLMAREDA

In general, pIC50 refers to the IC50 on a negative log10 scale, so that one unit is a factor of ten. In the case of `CC(C)C[C@H](NC(=O)[C@H](CC(N)=O)NC(=O)[C@H](CO)NC(=O)[C@H](Cc1cnc[nH]1)NC(=O)[C@H](CCC(=O)O)NC(=O)[C@H](CC(C)C)NC(=O)[C@H](Cc1cnc[nH]1)NC(=O)[C@H](CS)NC(=O)[C@@H](NC(=O)[C@@H]1CCCN1C(=O)[C@H](CC(N)=O)NC(=O)[C@H](CO)NC(=O)[C@H](CS)NC(=O)[C@H](CS)NC(=O)CN)C(C)C)C(=O)N[C@@H](CS)C(=O)O`, the pIC50 in assay [1] was 9.30; in assay [2], 9.41.

As to `CC[C@H](C)[C@H](NC(=O)[C@H](Cc1cnc[nH]1)NC(=O)[C@H](CCC(N)=O)NC(=O)[C@H](CC(N)=O)NC(=O)[C@H](CC(N)=O)NC(=O)CNC(=O)[C@H](C)NC(=O)[C@H](CS)NC(=O)[C@H](C)NC(=O)[C@@H]1CCCN1C(=O)[C@H](Cc1cnc[nH]1)NC(=O)[C@H](CO)NC(=O)[C@H](CS)NC(=O)[C@H](CS)NC(=O)CN)C(=O)N[C@@H](CS)C(=O)O`, the Ratio IC50 in assay [3] stood at 0.4. Moreover, the values for the pIC50 in assay [1] and in assay [2] were 8.96 and 8.52, respectively.

Take `CC(C)C[C@H](NC(=O)[C@H](Cc1cnc[nH]1)NC(=O)[C@H](CS)NC(=O)[C@@H](NC(=O)[C@@H]1CCCN1C(=O)[C@H](CC(N)=O)NC(=O)[C@H](CO)NC(=O)[C@H](CS)NC(=O)[C@H](CS)NC(=O)CN)C(C)C)C(=O)N[C@@H](C)C(=O)N[C@@H](Cc1cnc[nH]1)C(=O)N[C@@H](CO)C(=O)N[C@@H](CC(N)=O)C(=O)N[C@@H](CC(C)C)C(=O)N[C@@H](CS)C(=O)O` (H-GCCSNPVCHLAHSNLC-OH): the Activity in the assay listed under Macaca mulatta [4] was 51 pM; in the assay listed under Macaca mulatta [6], 9.7 fM. Besides, the Ratio IC50 in assay [3] is 54.5. The pIC50 was 8.06 in assay [1] and 9.80 in assay [2]. In the assay listed under Macaca mulatta [5], the Selectivity ratio stood at 5300.

Regarding `CC[C@H](C)[C@H](NC(=O)[C@H](CCC(N)=O)NC(=O)[C@@H]1CCCN1C(=O)[C@H](CC(N)=O)NC(=O)[C@H](Cc1cnc[nH]1)NC(=O)[C@@H](NC(=O)[C@@H](NC(=O)[C@H](CS)NC(=O)[C@@H](NC(=O)[C@@H]1CCCN1C(=O)[C@H](CC(N)=O)NC(=O)[C@H](CO)NC(=O)[C@H](CS)NC(=O)[C@H](CS)NC(=O)[C@@H]1CCCN1C(=O)[C@H](CC(=O)O)NC(=O)[C@@H](N)CCCNC(=N)N)C(C)C)[C@@H](C)O)C(C)C)C(=O)N[C@@H](CS)C(=O)O` (H-RDPCCSNPVCTVHNPQIC-OH), in assay [7], the Selectivity ratio is 75. In assay [3], the Ratio IC50 was 78.1. In addition, the negative logarithm of the IC50 (pIC50) is 7.13 in assay [1] and 9.02 in assay [2].
